Measurements reported in ChEMBL document CHEMBL3880438, “Identification of modulators of GPR41 or GPR42 activity” (2001).
Active and inactive are the calls of the source. The calls are words filed in the database; no cut-off is given here.

Tests used:
[1] = target: T1, Free fatty acid receptor 3 (Homo sapiens) (UniProt O14843); assay: Agonist activity at human GPR41 expressed in HEK293T cell membranes co-expressing Go1alpha protein assessed as stimulation of [35S]GTPgammaS binding at 0.1 microM to 0.1 M incubated for 30 mins by scintillation counting method; format: functional; settings: HEK-293T
T1 sequence (whole entry): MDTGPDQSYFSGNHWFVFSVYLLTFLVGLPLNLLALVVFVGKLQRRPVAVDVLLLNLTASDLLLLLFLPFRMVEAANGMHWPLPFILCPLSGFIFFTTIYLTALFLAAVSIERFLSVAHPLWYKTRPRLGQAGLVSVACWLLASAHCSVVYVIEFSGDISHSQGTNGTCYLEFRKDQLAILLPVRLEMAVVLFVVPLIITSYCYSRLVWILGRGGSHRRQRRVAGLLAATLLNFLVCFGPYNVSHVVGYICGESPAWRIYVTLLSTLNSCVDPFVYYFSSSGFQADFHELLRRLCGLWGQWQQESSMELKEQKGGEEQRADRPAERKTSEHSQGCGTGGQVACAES

[2] = target: T2, Free fatty acid receptor 3 (Rattus norvegicus) (UniProt B2GV46); assay: Agonist activity at rat GPR41 expressed in HEK293T cell membranes co-expressing Go1alpha protein assessed as stimulation of [35S]GTPgammaS binding at 0.1 microM to 0.1 M incubated for 30 mins by scintillation counting method; format: functional; settings: HEK-293T
T2 sequence (whole entry): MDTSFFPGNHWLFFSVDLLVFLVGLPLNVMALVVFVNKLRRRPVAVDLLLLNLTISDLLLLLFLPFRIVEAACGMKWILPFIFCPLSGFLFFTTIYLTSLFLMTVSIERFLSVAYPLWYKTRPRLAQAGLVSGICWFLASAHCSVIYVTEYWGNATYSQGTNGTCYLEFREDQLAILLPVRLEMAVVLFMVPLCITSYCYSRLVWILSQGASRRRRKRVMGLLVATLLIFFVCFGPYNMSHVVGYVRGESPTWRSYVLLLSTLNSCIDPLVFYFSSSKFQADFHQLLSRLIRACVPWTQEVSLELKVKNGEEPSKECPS

[3] = target: T2, Free fatty acid receptor 3 (Rattus norvegicus); assay: Agonist activity at GPR41 in rat primary adipocytes assessed as inhibition of isoprenaline-induced lipolysis by measuring glycerol level after 2 hrs; format: cell-based
[4] = target: T1, Free fatty acid receptor 3 (Homo sapiens); assay: Agonist activity at human GPR41 expressed in HEK293T cell membranes co-expressing Go1lpha protein assessed as stimulation of [35S]GTPgammaS binding at 1 microM to 0.1 M incubated for 30 mins by scintillation counting method; format: functional; settings: HEK-293T
[5] = target: T2, Free fatty acid receptor 3 (Rattus norvegicus); assay: Agonist activity at rat GPR41 expressed in Saccharomyces cerevisiae MMY11 co-expressing chimeric Gpa1/Galpha12 at 0.5 mM to 50 mM incubated for 48 hrs by induction of FUSl-lacZ and FUS1-HIS3 reporter gene induction based pheromone response pathway coupled assay
[6] = target: T2, Free fatty acid receptor 3 (Rattus norvegicus); assay: Agonist activity at rat GPR41 expressed in Saccharomyces cerevisiae MMY11 co-expressing chimeric Gpa1/Galpha13 at 0.5 mM to 50 mM incubated for 48 hrs by induction of FUSl-lacZ and FUS1-HIS3 reporter gene induction based pheromone response pathway coupled assay
[7] = target: T2, Free fatty acid receptor 3 (Rattus norvegicus); assay: Agonist activity at rat GPR41 expressed in Saccharomyces cerevisiae MMY11 co-expressing chimeric Gpa1/Ga0 at 0.5 mM to 50 mM incubated for 48 hrs by induction of FUSl-lacZ and FUS1-HIS3 reporter gene induction based pheromone response pathway coupled assay

| Structure (SMILES) | Activity [1] | Activity [2] | Activity [3] | other results |
| --- | --- | --- | --- | --- |
| CC(=O)[O-].N.O=CO.[Na+] | Active | Active | Dose-dependent effect | – |
| CC(=O)[O-].[Na+] | – | – | Dose-dependent effect | – |
| CCCC(=O)[O-].CCCCC(=O)[O-].[K+].[Na+] | Active | – | – | – |
| CCCCC(=O)[O-].[K+] | – | – | Active | – |
| CC(O)CC(=O)O (racemic) | – | – | – | Activity [4]: Active |
| CCC(=O)[O-].[Na+] [SODIUM PROPIONATE] | Active | Active | Dose-dependent effect | Activity [5]: Active; Activity [6]: Active; Activity [7]: Active |
